Reference: article PMC12864978, “Covalent modification of a glutamic acid inspired by HaloTag technology” (Nature Communications, 2026)

Columns and labels:
[1] = target: PDEδ in Jurkat cell lysates (Homo sapiens, UniProt O43924); assay: In-lysate CETSA (immunoblot readout); assay type: binding; design: host or cells: Jurkat
Protocol: A 100 ml aliquot of the suspension was divided equally into two Falcon tubes and chilled on ice for 2 min. Cells were pelleted by centrifugation at 350×g for 3 min at room temperature. After discarding the supernatant, the combined pellet was resuspended in 25 ml of ice-cold PBS buffer. The washing step-centrifugation at 350×g for 2 min at room temperature, followed by supernatant removal-was further repeated twice. […] The resulting lysate was separated by ultracentrifugation at 100,000×g for 20 min at 4 °C (Beckman Coulter Optima MAX-XP, MLA-80 rotor). The supernatant was carefully collected, snap-frozen in liquid nitrogen, and stored at -80 °C for subsequent analysis. Protein concentration was quantified using the Bradford protein assay. […] Following incubation, each aliquot was further subdivided into nine 120 μl portions in PCR tubes. […] For analysis, 75 μl of each supernatant was allocated for mass spectrometry-based thermal protein profiling (TPP), while the remaining 25 μl was used for immunoblotting to assess PDEδ levels. […] DMSO alone. […] Following incubation, each aliquot was further subdivided into nine 120 μl portions in PCR tubes. […] Mass spectrometry-based readout of CETSA For the mass spectrometry-based readout samples were reduced, alkylated, precipitated with acetone and tryptic digested. […]

[2] = target: Jurkat cell lysate proteome (Homo sapiens, UniProt P07195); assay: In-lysate thermal proteome profiling (TPP)
Protocol: (§1) Jurkat cells were grown to a density of 1.0–2.5 × 10⁶ cells/ml. A 100 ml aliquot of the suspension was divided equally into two Falcon tubes and chilled on ice for 2 min. Cells were pelleted by centrifugation at 350×g for 3 min at room temperature. After discarding the supernatant, the combined pellet was resuspended in 25 ml of ice-cold PBS buffer. The washing step—centrifugation at 350×g for 2 min at room temperature, followed by supernatant removal—was further repeated twice. Following the final wash, the cell pellet was resuspended in 1.5 ml of PBS containing 0.4% (v/v) NP40 alternative and flash-frozen in liquid nitrogen. […] The resulting lysate was separated by ultracentrifugation at 100,000×g for 20 min at 4 °C (Beckman Coulter Optima MAX-XP, MLA-80 rotor). The supernatant was carefully collected, snap-frozen in liquid nitrogen, and stored at −80 °C for subsequent analysis.
(§2) Protein concentration was quantified using the Bradford protein assay. […] Following incubation, each aliquot was further subdivided into nine 120 µl portions in PCR tubes. […] For analysis, 75 µl of each supernatant was allocated for mass spectrometry-based thermal protein profiling (TPP), while the remaining 25 µl was used for immunoblotting to assess PDEδ levels.
(§3) For mass spectrometric analysis, sample processing was further proceeded with reduction and alkylation, followed by acetone precipitation and tryptic digestion. Each digested aliquot was then labelled with isobaric TMT reagents (Thermo Fisher Scientific, A52047) corresponding to its specific temperature condition from the thermal shift assay.
(§4) Proteins were considered as stabilised or destabilised when, in all three replicates,
(§5) tailed p-values were determined by applying paired t-test comparing AUC of melting curves
(§6) between DMSO-treated and compound-treated conditions, OR
(§7) least ± 10 % (same direction) compared to the DMSO control.

[3] = target: T1, Jurkat cell lysate proteome (Homo sapiens, UniProt P22087); assay: In-lysate thermal proteome profiling (TPP)
T1 sequence (P22087 1-321): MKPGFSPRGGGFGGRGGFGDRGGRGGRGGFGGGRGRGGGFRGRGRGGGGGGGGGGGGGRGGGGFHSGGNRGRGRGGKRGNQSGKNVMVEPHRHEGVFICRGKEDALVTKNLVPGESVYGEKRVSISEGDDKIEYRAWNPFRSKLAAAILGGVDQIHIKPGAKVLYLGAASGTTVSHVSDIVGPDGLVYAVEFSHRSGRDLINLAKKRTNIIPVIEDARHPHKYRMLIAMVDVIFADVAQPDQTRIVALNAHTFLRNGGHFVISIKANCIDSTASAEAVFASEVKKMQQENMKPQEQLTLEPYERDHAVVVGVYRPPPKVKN
Protocol: as §1, §2, §3, §4, §5, §6, §7

[4] = target: Jurkat cell lysate proteome (Homo sapiens, UniProt P36404); assay: In-lysate thermal proteome profiling (TPP)
Protocol: as §1, §2, §3, §4, §5, §6, §7

[5] = target: Jurkat cell lysate proteome (Homo sapiens, UniProt Q14108); assay: In-lysate thermal proteome profiling (TPP)
Protocol: as §1, §2, §3, §4, §5, §6, §7

[6] = target: Jurkat cell lysate proteome (Homo sapiens, UniProt Q15382); assay: In-lysate thermal proteome profiling (TPP); details: 10 µM, 15 min
Protocol: as §1, §2, §3, §4, §5, §6, §7

[7] = target: T2, Jurkat cell lysate proteome (Homo sapiens, UniProt Q9H2H9); assay: In-lysate thermal proteome profiling (TPP)
T2 sequence (Q9H2H9 1-487): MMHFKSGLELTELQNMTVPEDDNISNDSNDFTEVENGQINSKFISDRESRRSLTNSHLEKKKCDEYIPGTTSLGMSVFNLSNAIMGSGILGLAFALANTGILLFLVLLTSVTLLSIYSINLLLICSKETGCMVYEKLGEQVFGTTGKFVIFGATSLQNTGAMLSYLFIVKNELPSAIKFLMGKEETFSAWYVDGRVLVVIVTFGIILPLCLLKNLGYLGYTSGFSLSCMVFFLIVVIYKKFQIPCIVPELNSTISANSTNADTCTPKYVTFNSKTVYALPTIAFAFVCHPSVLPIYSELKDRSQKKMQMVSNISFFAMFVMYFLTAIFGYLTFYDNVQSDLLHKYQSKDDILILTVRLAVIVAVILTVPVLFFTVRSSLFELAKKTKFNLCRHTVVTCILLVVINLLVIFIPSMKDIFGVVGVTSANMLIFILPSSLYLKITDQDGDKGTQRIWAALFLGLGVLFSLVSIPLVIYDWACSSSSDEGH
Protocol: as §1, §2, §3, §4, §5, §6, §7

[8] = target: Jurkat cell lysate proteome (Homo sapiens, UniProt Q9H583); assay: In-lysate thermal proteome profiling (TPP)
Sequence of Jurkat cell lysate proteome (Homo sapiens, UniProt Q9H583) (Q9H583 whole entry): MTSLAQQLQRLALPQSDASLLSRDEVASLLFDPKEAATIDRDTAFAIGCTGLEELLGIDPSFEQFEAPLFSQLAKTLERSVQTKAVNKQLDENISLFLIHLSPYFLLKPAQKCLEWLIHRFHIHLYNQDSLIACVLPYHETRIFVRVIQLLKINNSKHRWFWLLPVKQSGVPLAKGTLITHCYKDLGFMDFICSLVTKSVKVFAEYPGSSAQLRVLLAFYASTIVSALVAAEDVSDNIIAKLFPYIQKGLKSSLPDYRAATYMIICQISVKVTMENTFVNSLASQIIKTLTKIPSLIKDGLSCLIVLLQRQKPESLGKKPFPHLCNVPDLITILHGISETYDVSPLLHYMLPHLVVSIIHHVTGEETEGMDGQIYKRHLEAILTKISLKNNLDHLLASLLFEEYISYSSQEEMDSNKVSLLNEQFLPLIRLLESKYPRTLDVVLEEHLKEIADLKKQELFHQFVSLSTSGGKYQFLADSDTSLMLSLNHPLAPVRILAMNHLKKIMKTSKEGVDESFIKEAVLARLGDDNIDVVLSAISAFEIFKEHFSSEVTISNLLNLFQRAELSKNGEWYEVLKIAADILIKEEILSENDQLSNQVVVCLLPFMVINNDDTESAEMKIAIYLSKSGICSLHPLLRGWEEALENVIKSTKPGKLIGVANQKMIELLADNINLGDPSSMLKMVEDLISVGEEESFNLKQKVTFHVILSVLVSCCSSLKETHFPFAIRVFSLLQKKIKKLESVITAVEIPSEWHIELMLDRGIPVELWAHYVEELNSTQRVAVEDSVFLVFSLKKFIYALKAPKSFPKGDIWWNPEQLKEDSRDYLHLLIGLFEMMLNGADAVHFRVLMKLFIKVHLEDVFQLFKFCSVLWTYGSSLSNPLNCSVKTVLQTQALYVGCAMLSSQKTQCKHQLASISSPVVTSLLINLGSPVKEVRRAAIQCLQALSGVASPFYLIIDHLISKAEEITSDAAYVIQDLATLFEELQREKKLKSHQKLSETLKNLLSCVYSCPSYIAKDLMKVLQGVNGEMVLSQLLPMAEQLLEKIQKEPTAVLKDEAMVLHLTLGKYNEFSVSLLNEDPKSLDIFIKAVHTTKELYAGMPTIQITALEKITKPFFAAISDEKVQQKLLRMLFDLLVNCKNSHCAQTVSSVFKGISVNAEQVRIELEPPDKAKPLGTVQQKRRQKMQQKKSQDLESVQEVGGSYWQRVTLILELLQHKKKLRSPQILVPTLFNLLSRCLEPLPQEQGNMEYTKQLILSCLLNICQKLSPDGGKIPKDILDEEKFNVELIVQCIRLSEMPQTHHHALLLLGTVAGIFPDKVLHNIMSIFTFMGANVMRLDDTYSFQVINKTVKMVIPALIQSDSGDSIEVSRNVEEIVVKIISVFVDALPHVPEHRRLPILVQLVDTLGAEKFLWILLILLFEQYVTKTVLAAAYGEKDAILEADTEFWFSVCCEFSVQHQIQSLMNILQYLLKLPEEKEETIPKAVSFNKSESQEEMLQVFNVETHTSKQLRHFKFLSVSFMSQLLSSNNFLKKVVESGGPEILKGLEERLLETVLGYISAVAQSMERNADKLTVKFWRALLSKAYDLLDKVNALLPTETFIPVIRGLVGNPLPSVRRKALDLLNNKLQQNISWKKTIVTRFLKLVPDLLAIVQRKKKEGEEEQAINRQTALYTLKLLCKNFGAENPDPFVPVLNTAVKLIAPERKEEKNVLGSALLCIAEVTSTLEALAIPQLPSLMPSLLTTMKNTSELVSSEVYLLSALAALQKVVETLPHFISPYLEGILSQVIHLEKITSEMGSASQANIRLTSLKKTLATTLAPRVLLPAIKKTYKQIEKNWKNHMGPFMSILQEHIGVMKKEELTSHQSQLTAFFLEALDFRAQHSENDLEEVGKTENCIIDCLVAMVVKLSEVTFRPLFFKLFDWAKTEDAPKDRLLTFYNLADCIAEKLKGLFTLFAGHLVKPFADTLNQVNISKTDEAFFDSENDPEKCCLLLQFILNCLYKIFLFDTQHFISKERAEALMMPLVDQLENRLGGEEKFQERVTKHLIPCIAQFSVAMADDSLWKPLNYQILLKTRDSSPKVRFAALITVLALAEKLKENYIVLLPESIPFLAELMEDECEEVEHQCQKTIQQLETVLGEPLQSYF
Protocol: as §1, §2, §3, §4, §5, §6, §7

Sequence of Jurkat cell lysate proteome (Homo sapiens, UniProt Q15382) (Q15382 whole entry): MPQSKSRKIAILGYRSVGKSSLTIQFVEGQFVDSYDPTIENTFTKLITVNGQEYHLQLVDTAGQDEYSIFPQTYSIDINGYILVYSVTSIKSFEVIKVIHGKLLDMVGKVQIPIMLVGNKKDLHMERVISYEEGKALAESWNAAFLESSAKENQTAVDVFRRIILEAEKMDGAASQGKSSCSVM
Sequence of Jurkat cell lysate proteome (Homo sapiens, UniProt P07195) (P07195 whole entry): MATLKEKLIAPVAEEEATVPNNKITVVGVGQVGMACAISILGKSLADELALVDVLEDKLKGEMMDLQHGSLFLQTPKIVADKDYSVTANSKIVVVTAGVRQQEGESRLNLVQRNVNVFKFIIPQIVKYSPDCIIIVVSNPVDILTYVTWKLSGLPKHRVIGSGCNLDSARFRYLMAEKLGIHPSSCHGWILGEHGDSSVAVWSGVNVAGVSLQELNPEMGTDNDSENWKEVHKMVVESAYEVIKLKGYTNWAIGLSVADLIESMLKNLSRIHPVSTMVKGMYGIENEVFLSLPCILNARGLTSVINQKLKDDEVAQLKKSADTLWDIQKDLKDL
Sequence of PDEδ in Jurkat cell lysates (O43924 whole entry): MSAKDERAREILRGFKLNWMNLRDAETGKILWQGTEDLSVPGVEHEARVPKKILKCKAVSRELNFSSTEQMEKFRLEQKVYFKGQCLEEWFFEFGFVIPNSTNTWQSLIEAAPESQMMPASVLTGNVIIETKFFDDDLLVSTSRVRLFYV
Sequence of Jurkat cell lysate proteome (Homo sapiens, UniProt P36404) (P36404 whole entry): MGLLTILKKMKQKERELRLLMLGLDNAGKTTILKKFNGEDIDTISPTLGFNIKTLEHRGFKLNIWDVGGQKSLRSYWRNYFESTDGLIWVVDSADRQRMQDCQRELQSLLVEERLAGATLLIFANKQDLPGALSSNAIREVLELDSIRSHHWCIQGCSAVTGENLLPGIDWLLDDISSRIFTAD
Sequence of Jurkat cell lysate proteome (Homo sapiens, UniProt Q14108) (Q14108 whole entry): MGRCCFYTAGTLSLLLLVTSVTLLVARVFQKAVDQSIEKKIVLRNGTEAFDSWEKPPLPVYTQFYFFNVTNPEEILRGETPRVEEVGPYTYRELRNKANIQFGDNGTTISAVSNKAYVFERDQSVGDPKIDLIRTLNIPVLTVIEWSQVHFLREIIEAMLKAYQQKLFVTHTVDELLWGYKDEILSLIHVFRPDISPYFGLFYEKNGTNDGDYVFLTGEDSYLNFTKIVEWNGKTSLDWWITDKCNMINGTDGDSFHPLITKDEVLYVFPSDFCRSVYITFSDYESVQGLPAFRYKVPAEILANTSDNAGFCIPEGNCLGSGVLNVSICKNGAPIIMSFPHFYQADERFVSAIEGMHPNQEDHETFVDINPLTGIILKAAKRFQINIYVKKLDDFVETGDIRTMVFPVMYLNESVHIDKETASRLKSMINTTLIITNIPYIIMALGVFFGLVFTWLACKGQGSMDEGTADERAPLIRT

Compound: Cc1ccc(-n2nc3c(=O)n(CCCCS(=O)(=O)N(CCc4cccc(CCBr)c4)CC4CCNCC4)nc(C)c3c2C)cc1 [6a]
- ΔTm at 10 µM ([1]; 15 min at 37 °C): 11.8 ± 0.2 °C
- ΔTm at 10 µM ([1]; 2 h at 37 °C): 22.1 ± 1 °C
- ΔAUC LDHB ([2]; 10 µM, 15 min): -1.8
- ΔI67°C LDHB ([2]; 10 µM, 15 min): -1 ± 4%
- ΔTm at 10 µM ([2]; read-out: ΔTm LDHB, 10 µM, 15 min): -2.9 ± 0.7 °C
- ΔAUC FBL ([3]; 10 µM, 15 min): -1.8
- ΔI67°C FBL ([3]; 10 µM, 15 min): -1 ± 2%
- ΔTm at 10 µM ([3]; read-out: ΔTm FBL, 10 µM, 15 min): -1.8 ± 1.1 °C
- ΔAUC Arl2 ([4]; 10 µM, 15 min): 0.97
- ΔTm at 10 µM ([4]; read-out: ΔTm Arl2, 10 µM, 15 min): -0.92 °C
- ΔI67°C SCARB2 ([5]; 10 µM, 15 min): -14 ± 4%
- ΔTm at 10 µM ([5]; read-out: ΔTm SCARB2, 10 µM, 15 min): 0.7 ± 2.1 °C
- ΔAUC RHEB [6]: -1.5
- ΔI67°C RHEB [6]: -6 ± 8%
- ΔTm RHEB [6]: -0.9 ± 0.8 °C
- ΔAUC RHEB ([6]; listed as DeltaTag): −1.5
- ΔTm RHEB ([6]; listed as DeltaTag): −0.89 °C
- ΔAUC SLC38A1 ([7]; 10 µM, 15 min): -3.3
- ΔI67°C SLC38A1 ([7]; 10 µM, 15 min): -13 ± 5%
- ΔTm at 10 µM ([7]; read-out: ΔTm SLC38A1, 10 µM, 15 min): -3.1 ± 0.5 °C
- ΔAUC HEATR1 ([8]; 10 µM, 15 min): -2.9
- ΔI67°C HEATR1 ([8]; 10 µM, 15 min): -8 ± 6%
- ΔTm at 10 µM ([8]; read-out: ΔTm HEATR1, 10 µM, 15 min): -2.8 ± 1.1 °C
